{"source": "patent US4474790A", "about": "“Thioalkylamide of nicotinic acid 1-oxide, its salts, and pharmaceutical compositions” (SANOFI, priority 1981, dated 1984)", "key": {"[1]": {"test_system": "hypersecretion provoked by the dimaprit", "experiment": "antisecretory activity in the cat having a gastric fistula, dimaprit as hypersecretor (Emas et al.)", "format": "in vivo", "settings": "dimaprit 640 mcg/kg/hour", "experimental": "The antisecretory activity of the products of the present invention was assessed in the cat having a gastric fistula according to the method of Emas et al.(Gastroenterology, 1969; 39, 771) using, as hypersecretor, dimaprit at the dose of 640 mcg/kg/hour."}, "cardiac H2 receptors": {"test_system": "cardiac H2 receptors", "settings": "treatment of ulcerous disease; Clinica Terapeutica, 1981, 96, 81-91; cited from earlier work"}, "[2]": {"biological_target": "T1, gastric histamine H2 receptor (Cavia porcellus, UniProt P47747)", "T1 construct": "isolated stomach mucous membrane of the Guinea pig; from tissue; host or cells: isolated guinea pig stomach mucous membrane", "T1 sequence (P47747 whole entry)": "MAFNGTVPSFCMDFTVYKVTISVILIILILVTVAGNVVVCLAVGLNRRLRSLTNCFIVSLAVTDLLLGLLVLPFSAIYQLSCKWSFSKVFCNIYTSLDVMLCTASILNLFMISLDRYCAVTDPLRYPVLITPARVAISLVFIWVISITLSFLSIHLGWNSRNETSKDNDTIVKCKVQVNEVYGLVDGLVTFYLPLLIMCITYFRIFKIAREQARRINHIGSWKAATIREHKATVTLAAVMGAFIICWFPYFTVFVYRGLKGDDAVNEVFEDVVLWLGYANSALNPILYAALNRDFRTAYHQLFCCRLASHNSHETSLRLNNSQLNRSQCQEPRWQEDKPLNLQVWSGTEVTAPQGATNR", "design": "species or system guinea pig", "settings": "for pIC50: concentration inhibiting by 50% the secretion induced by histamine, isolated stomach mucous membrane of the Guinea pig, CM 57755 as dihydrochloride; for IC50 m/IC50 o: ratio gastric IC50 / cardiac IC50"}, "[3]": {"biological_target": "T2, cardiac histamine H2 receptor (Cavia porcellus, UniProt P47747)", "T2 construct": "isolated right atrium of the Guinea pig; from tissue; host or cells: isolated guinea pig right atrium", "T2 sequence (P47747 whole entry)": "as above", "settings": "concentration inhibiting by 50% the increase in frequency induced by histamine; isolated right atrium of the Guinea pig; CM 57755 as dihydrochloride"}, "[4]": {"test_system": "gastric histamine H2 receptors", "experiment": "antisecretory activity: antagonism to the hypersecretion provoked by histamine in the rat (Ghosh and Schild)", "format": "in vivo", "settings": "intravenous route, histamine infusion equivalent to 15 mcmol/kg/hour", "description": "The antagonistic activity of the products of the present invention towards the gastric histamine H2 receptors was confirmed in the test of the antisecretory activity based on the antagonism to the hypersecretion provoked by histamine in the rat according to the method of Ghosh and Schild (Brit. J. Pharmacol.1958; 13, 54). According to this test, a gastric acid hypersecretion is induced by intravenous infusion of a submaximal dose equivalent to 15 mcmol/kg/hour and the gastric secretion is measured by perfusion of a physiological solution at a constant speed in the stomach of the animal."}, "[5]": {"experiment": "acute toxicity (LD50) in the rat", "settings": "in vivo, intravenous route"}}, "note": "pIC50: −log10 of the molar value.", "data": [{"smiles": "CNC(=NC#N)NCCSCc1nc[nH]c1C", "note": "[cimetidine, 2-cyano-1-methyl-3-[2[(5-methylimidazol-4-yl)methylthio]ethyl]guanidine, reference compound]", "values": [{"measurement": "duration of action after the suspension of the treatment", "setting": "[1]", "value": "more transient"}, {"measurement": "secondary effects (block of the cardiac H2 receptors may be the cause)", "setting": "cardiac H2 receptors", "value": "bradycardia and of asystolia"}]}, {"smiles": "CNC(=C[N+](=O)[O-])NCCSCc1ccc(CN(C)C)o1", "note": "[ranitidine, reference compound]", "values": [{"measurement": "pIC50", "setting": "[2]", "value": 6.19}, {"measurement": "IC50 m/IC50 o", "setting": "[2]", "value": 7.6}, {"measurement": "pIC50", "setting": "[3]", "value": 7.07}]}, {"smiles": "CN(C)Cc1ccc(CSCCNC(=O)c2ccc[n+]([O-])c2)o1.Cl.Cl", "note": "[CM 57755, N-[2-(5-dimethylaminomethylfuran-2-ylmethylthio)ethyl]-3-pyridinecarboxamide 1-oxide dihydrochloride]", "values": [{"measurement": "duration of action after the suspension of the treatment", "setting": "[1]", "value": "long duration of action after the suspension of the treatment"}, {"measurement": "activity compared with that of cimetidine", "setting": "[1]; on molar basis", "value": "comparable, on molar basis, to that of the cimetidine"}, {"measurement": "antagonism of the hypersecretion provoked by the dimaprit", "setting": "[1]; venous perfusion and intragastric route", "value": "antagonises in dose-dependent manner"}, {"measurement": "dose inhibiting by 50% the hypersecretion provoked by histamine", "setting": "[4]", "value": 0.9, "unit": "mg/kg"}, {"measurement": "pIC50", "setting": "[2]", "value": 5.04}, {"measurement": "affinity for the gastric H2 receptors versus the cardiac H2 receptors", "setting": "[2]; conclusion from the IC50 m/IC50 o ratio", "value": "greater affinity for the gastric H2 receptors than for the cardiac H2 receptors"}, {"measurement": "selectivity of antagonising gastric hypersecretion versus the positive chronotropic action provoked by histamine", "setting": "[2]; conclusion from the IC50 m/IC50 o ratio, relative to the reference compounds", "value": "capable of antagonising gastric hypersecretion more selectively than the positive chronotropic action provoked by histamine"}, {"measurement": "IC50 m/IC50 o", "setting": "[2]", "value": 2.13}, {"measurement": "pIC50", "setting": "[3]", "value": 5.37}, {"measurement": "LD50", "setting": "[5]", "value": 300, "unit": "mg/kg"}]}]}
